Experimental data reported in PMC4309438, “Capacitance-modulated transistor detects odorant binding protein chiral interactions” (Nature Communications, 2015).
Like-named read-outs stand apart in the source and are kept apart here.

How the values were obtained:
pOBP-mutant-F88W = target: T1, pOBP-mutant-F88W (Sus scrofa, UniProt P81245, F88W); experiment: Competitive fluorescent binding assay of pOBP in solution (1-AMA probe); parameters: species or system porcine; details: pOBP and 1-AMA probe at 1 μM, 10 mM phosphate buffer pH 7.4, room temperature, calculated from IC50, read-out: dissociation constant KSol
T1 construct: His6 (N); made in house; host or cells: Escherichia coli BL21(DE3), pET5b vector
T1 sequence (P81245 1-157 F88W): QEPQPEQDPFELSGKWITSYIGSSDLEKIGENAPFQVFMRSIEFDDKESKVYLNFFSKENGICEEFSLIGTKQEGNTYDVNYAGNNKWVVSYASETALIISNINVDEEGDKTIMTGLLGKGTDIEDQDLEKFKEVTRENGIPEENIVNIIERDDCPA
Description: Emission fluorescence spectra were recorded using a Perkin Elmer LS55 instrument at room temperature, with a 1 cm light path quartz cuvette and 5 nm slits for both excitation and emission. The affinity of binding of pOBP was measured using the fluorescence probe 1-AMA as previously reported. About 1 μM pOBP-F88W solution in 10 mM phosphate buffer, pH 7.4, was titrated with aliquots of 1 mM 1-AMA in methanol to final concentrations of 0.25–8 μM. The probe was excited at 375 nm and the fluorescence spectra were recorded between 400 to 570 nm, monitoring the signals between 480 and 490 nm. The dissociation constant (K1-AMA) for the OBP/1-AMA complex was calculated using the equation y=(Bmax × x)/(K1-AMA+x), where y is the degree of saturation, Bmax is the number of maximum binding sites, and K1-AMA is the dissociation constant. The calculation was run using the software Sigma Plot and a single binding site was considered for the OBP.
The affinity of pOBP-F88W towards S-(+)-carvone and R-(−)-carvone and 2-phenylethanol was measured in competitive binding assays, using both pOBP and probe at 1 μM as the final concentration. The ligand solutions, with concentrations ranging from 2 to 20 μM, were prepared in 10 mM phosphate buffer pH 7.4 and used for the binding experiments. Dissociation constants of competitors were calculated from the corresponding IC50 values, using the equation: KSol=[IC50]/1+[1-AMA]/K1-AMA, where [1-AMA] is the free concentration of the fluorescence probe and K1-AMA is the dissociation constant of the complex OBP/1-AMA.

[1] = target: T2, pOBP-SAM (pOBP-F88W immobilized on gold gate) (Sus scrofa, UniProt P81245, F88W); experiment: WGOFET with pOBP-SAM gate: binding curves from ΔI/I electronic response; parameters: species or system porcine; details: for α (Hill degree of cooperativity): Hill's isotherm fit of binding curve of Fig. 5b; for Kd: pOBP-SAM gate, fit of ΔI/I binding curve of Fig. 5b; for ΔC/C, fractional change of pOBP-SAM capacitance (measured chiral response): at saturation, extracted from source-drain current (Fig. 8a); for plateau response at saturation (ΔI/I): best-fit parameter of binding curve of Fig. 5b, IDS at VG=−0.5 V; for WGOFET response at saturation: binding curves of Fig. 5b; for maximum fractional decrease of IDS: control experiment of Fig. 6: same pOBP-SAM gate exposed alternately to the two enantiomers, rinsed between exposures
T2 construct: His6 (N); made in house; host or cells: Escherichia coli BL21(DE3), pET5b vector
T2 sequence (P81245 1-157 F88W): T1 sequence (P81245 1-157 F88W)
Excerpt: where Ci≈COBP is the capacitance per unit area. In Fig. 5a, the pOBP-WGOFET transfer-characteristics (IDS versus VG at VDS=−0.5 V) are reported for a device gated with a pristine pOBP-SAM (baseline, red curve) along with the traces measured after exposing the pOBP-SAM to progressively higher concentrations of (S)-(+)carvone (signal, black curves). Apparently, a significant degree of current decrease can be measured even at very low ligand concentrations. In the Supplementary Fig. 8, the gate leakage currents (IG) for the data of Fig. 5a are reported for comparison. […] From the transfer curve the COBP and μFET product, as well as the VT values are extracted. μFET can be as high as (1.1±0.2) × 10^−1 cm^2 V^−1 s^−1, showing a very good level of performance for the pOBP-SAM WGOFET[37]. The fractional current decrease upon binding was evaluated from the transfer curves as ΔI/I=[(I−I0)I0^−1] with I and I0 being IDS values at VG=−0.5 V for the signal and for the base-line curves, respectively. ΔI/I was taken as the WGOFET electronic response as this normalizes the device-to-device variation in FET biosensors, resulting in high response reproducibility.
The fitting of the (S)-(+)-carvone binding curve (red solid line in Fig. 5b) is performed using Langmuir’s isotherm Y=bMAX(X/(KFET+X)), where Y is the ΔI/I electronic response proportional, through bmax, to the degree of saturation. X is the ligand concentration and KFET is the dissociation constant. The fitting of the (R)-(−)-carvone (magenta solid curve in Fig. 5b) was calculated using Hill’s binding model, also used to model the data relevant to the 2-phenylethanol (blue curve). The Hill’s equation is Y=bMAX(X^α/(KFET+X^α)), with α giving the degree of cooperativity (α=1 for non-cooperative, α>1 and α<1 for positive and negative cooperativity, respectively). The fit of the S-(+)-carvone data to a Langmuir’s non-cooperative binding isotherm[39] returns a dissociation constant KFET^+=0.81±0.05 nM and a plateau response at a saturation of (ΔI/I)^+=0.62±0.01, while the limit-of-detection is 50 pM and the limit-of-quantification is 150 pM. The detection of carvone enantiomers here performed is about 6 orders of magnitude better than the determinations performed with a back-gate device. A comparison between the two systems is not straightforward as they hold different device structures and different recognition elements. However, it is a fact that in the WGOFET a direct interaction between the bio-recognition element layer and an electronic interface, is created. The R-(−)-carvone data could only be accounted for by a Hill’s binding isotherm[38] that, through the α coefficient, models the extent of cooperativity of a given binding site. […] The fitting of the S-(+)-carvone to the Hill’s isotherm, performed as control, returns a KFET=0.4±0.2 nM and an α=1.1±0.1, consistent with the Langmuir’s fit. The errors are taken as 1 s.d., as for all data presented.
PBTTT-C14 was dissolved (7 mg ml^−1) in a mixture of 1,2-dichlorobenzene and chloroform (9:1). Gold source (S) and drain (D) interdigitated electrodes were photo-lithographically defined on a flexible substrate. The distance between two differently biased fingers is the channel length (L), while the perimeter of each set of equipotential fingers is the channel width (W); they are 5 μm and 10^4 μm, respectively. The substrate with patterned electrodes was spin coated with a PBTTT-C14 solution at 7,000 r.p.m. for 60 s and annealed at 120 °C for 10 min. A gold plate with an area of ~3 10^−2 cm^2 served as the gate (G) electrode. The SAM functionalizing protocol[52] involved a 50 mM solution of 3-mercaptopropionic acid (3MPA) in ethanol containing 5% acetic acid. N2 was bubbled through the 3MPA solution for at least 10 min to remove dissolved oxygen. The gold electrodes were immersed into the 3MPA solution and kept in the dark under N2 for 18 h at 22 °C. […]

human = tested on: human; parameters: method as in earlier work; details: perceived as spearmint or caraway odours; cited from earlier work
[2] = read-out: dissociation constant KFET (Hill's isotherm fit)

Row | Kd (pOBP-mutant-F88W) [nM] | α (Hill degree of cooperativity) [1] | Kd [1, 2] [nM] | ΔC/C, fractional change of pOBP-SAM capacitance (measured chiral response) [1] | plateau response at saturation (ΔI/I) [1] | WGOFET response at saturation [1] [%] | maximum fractional decrease of IDS [1] | limit-of-detection ([1]; pOBP-SAM WGOFET) [pM] | limit-of-quantification ([1]; pOBP-SAM WGOFET) [pM] | Kd ([1]; three devices, read-out: dissociation constant KFET (Langmuir's isotherm fit)) [nM] | SMILES | human threshold for detection (odour) (human) [nM]
1 | ~40000 | 0.3±0.1 | 700 ± 330 | – | – | – | – | – | – | – | OCCc1ccccc1 [2-phenylethanol] | –
2 | 1220 ± 50 | 0.5±0.1 | 20 ± 20 | −0.17 | 0.17±0.02 | < 20 | much higher response at saturation | – | – | – | C=C(C)[C@@H]1CC=C(C)C(=O)C1 [(R)-(−)-carvone] | 30
3 | 500 ± 10 | 1.1±0.1 | 0.4 ± 0.2 | −0.485 | 0.62±0.01 | > 60 | ~ 60% | 50 | 150 | 0.81 ± 0.05 | C=C(C)[C@H]1CC=C(C)C(=O)C1 [(S)-(+)-carvone] | 420
